Where two headings read alike, the source gives them in different places.
Tested on: HIV-1 (IIIB) in MT-4 cells
Assay: MT-4 HIV assay
Type: cell-based
Summary of the method: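 Antiviral activity was read by Cell Titer Glo after a 5-day, 37 °C culture of MT-4 cells pre-infected with a 1:250 dilution of HIV-1 (IIIB). Compounds were tested as threefold dilution series in complete RPMI. Controls were no drug, mock infection and 5 uM AZT.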

[1] = Human immunodeficiency virus 1, MT4, 120 h, HIV-1 (IIIB), MT-4 cells, 5 days, Cell Titer Glo, read-out: EC50

Compound	EC50 [1]	further results
methyl ((5S,8S,9S,14S)-11-(2-chloro-6-fluoro-(pyridin-2-yl)benzyl)-16-fluoro-5-(1-fluoro-2-methylpropan-2-yl)-9-hydroxy-15,15-dimethyl-3,6,13-trioxo-8-(4-((6-(8-(2,2,2-trifluoroethyl)-3,8-diazabicyclo[3.2.1]octan-3-yl)pyridin-3-yl)ethynyl)benzyl)-2-oxa-4,7,11,12-tetraazahexadecan-14-yl)carbamate [Example 244]		EC50 (HIV-1 (IIIB), MT-4 cells, 5 days, Cell Titer Glo, read-out: EC50): 19.5 nM
COC(=O)N[C@H](C(=O)N[C@@H](Cc1ccc(C#Cc2ccc(N3CC4CCC(C3)N4C)nc2)cc1)[C@@H](O)CN(Cc1c(F)cc(-c2ccccn2)cc1F)NC(=O)[C@@H](NC(=O)OC)C(C)(C)C(F)(F)F)C(C)(C)C(F)(F)F [Example 242, methyl ((5S,8S,9S,14S)-11-(2,6-difluoro-4-(pyridin-2-yl)benzyl)-16,16,16-trifluoro-9-hydroxy-15,15-dimethyl-8-(4-((6-(8-methyl-3,8-diazabicyclo[3.2.1]octan-3-yl)pyridin-3-yl)ethynyl)benzyl)-3,6,13-trioxo-5-(1,1,1-trifluoro-2-methylpropan-2-yl)-2-oxa-4,7,11,12-tetraazahexadecan-14-yl)carbamate]	3.45 nM	
COC(=O)N[C@H](C(=O)N[C@@H](Cc1ccc(-c2cnn(C(F)F)c2)cc1)[C@@H](O)CN(Cc1c(F)cc(-c2cnn(C(F)F)c2)cc1F)NC(=O)[C@@H](NC(=O)OC)C(C)(C)C(F)(F)F)C(C)(C)C(F)(F)F [Example 211, Methyl ((5S,8S,9S,14S)-11-(4-(1-(difluoromethyl)-1H-pyrazol-4-yl)-2,6-difluorobenzyl)-8-(4-(1-(difluoromethyl)-1H-pyrazol-4-yl)benzyl)-16,16,16-trifluoro-9-hydroxy-15,15-dimethyl-3,6,13-trioxo-5-(1,1,1-trifluoro-2-methylpropan-2-yl)-2-oxa-4,7,11,12-tetraazahexadecan-14-yl)carbamate]	5.75 nM	
COC(=O)N[C@H](C(=O)N[C@@H](Cc1ccc(C#Cc2cnc(N3CC4CCC(C3)N4C3COC3)nc2)cc1)[C@@H](O)CN(Cc1ccc(-c2ccn(C(F)F)n2)cc1F)NC(=O)[C@@H](NC(=O)OC)C(C)(C)C(F)(F)F)C(C)(C)C(F)(F)F [Example 118, Methyl ((5S,8S,9S,14S)-11-(4-(1-(difluoromethyl)-1H-pyrazol-3-yl)-2-fluorobenzyl)-16,16,16-trifluoro-9-hydroxy-15,15-dimethyl-8-(4-((2-(8-(oxetan-3-yl)-3,8-diazabicyclo[3.2.1]octan-3-yl)pyrimidin-5-yl)ethynyl)benzyl)-3,6,13-trioxo-5-(1,1,1-trifluoro-2-methylpropan-2-yl)-2-oxa-4,7,11,12-tetraazahexadecan-14-yl)carbamate]	10.6 nM	
COC(=O)N[C@H](C(=O)N[C@@H](Cc1ccc(C#Cc2nc(N3CC4CCC(C3)N4C3COC3)nc(N3C[C@H]4CC[C@@H](C3)N4C3COC3)n2)cc1)[C@@H](O)CN(Cc1c(F)cc(-c2ccn(C(F)F)n2)cc1F)NC(=O)[C@@H](NC(=O)OC)C(C)(C)C(F)(F)F)C(C)(C)C(F)(F)F [Example 49, Methyl ((5S,8S,9S,14S)-11-(4-(1-(difluoromethyl)-1H-pyrazol-3-yl)-2,6-difluorobenzyl)-16,16,16-trifluoro-9-hydroxy-15,15-dimethyl-8-(4-((4-((1R,5S)-8-(oxetan-3-yl)-3,8-diazabicyclo[3.2.1]octan-3-yl)-6-(8-(oxetan-3-yl)-3,8-diazabicyclo[3.2.1]octan-3-yl)-1,3,5-triazin-2-yl)ethynyl)benzyl)-3,6,13-trioxo-5-(1,1,1-trifluoro-2-methylpropan-2-yl)-2-oxa-4,7,11,12-tetraazahexadecan-14-yl)carbamate]	37.3 nM	
COC(=O)N[C@H](C(=O)N[C@@H](Cc1ccc(C#Cc2ccc(N3CC4CC(C3)N4C3COC3)nc2)cc1)[C@@H](O)CN(Cc1c(F)cc(-c2ccn(CC(F)F)n2)cc1F)NC(=O)[C@@H](NC(=O)OC)C(C)(C)C(F)(F)F)C(C)(C)C(F)(F)F [Example 41, Methyl ((5S,8S,9S,14S)-11-(4-(1-(2,2-difluoroethyl)-1H-pyrazol-3-yl)-2,6-difluorobenzyl)-16,16,16-trifluoro-9-hydroxy-15,15-dimethyl-8-(4-((6-(6-(oxetan-3-yl)-3,6-diazabicyclo[3.1.1]heptan-3-yl)pyridin-3-yl)ethynyl)benzyl)-3,6,13-trioxo-5-(1,1,1-trifluoro-2-methylpropan-2-yl)-2-oxa-4,7,11,12-tetraazahexadecan-14-yl)carbamate]	3.58 nM	
COC(=O)N[C@H](C(=O)NN(Cc1c(F)cc(-c2ccn(C3CC3)n2)cc1F)C[C@H](O)[C@H](Cc1ccc(C#Cc2ccc(N3CC4CCC(C3)N4C3COC3)nc2)cc1)NC(=O)[C@@H](NC(=O)OC)C(C)(C)C(F)(F)F)C(C)(C)C [Example 5, methyl ((5S,8S,9S,14S)-11-(4-(1-cyclopropyl-1H-pyrazol-3-yl)-2,6-difluorobenzyl)-9-hydroxy-15,15-dimethyl-8-(4-((6-(8-(oxetan-3-yl)-3,8-diazabicyclo[3.2.1]octan-3-yl)pyridin-3-yl)ethynyl)benzyl)-3,6,13-trioxo-5-(1,1,1-trifluoro-2-methylpropan-2-yl)-2-oxa-4,7,11,12-tetraazahexadecan-14-yl)carbamate]	4.37 nM	
COC(=O)N[C@H](C(=O)N[C@@H](Cc1ccc(C#Cc2ccc(N3CC4CC(CN(c5ccccn5)C4)C3)nc2)cc1)[C@@H](O)CN(Cc1c(F)cc(-c2cnn(C(F)F)c2)cc1F)NC(=O)[C@@H](NC(=O)OC)C(C)(C)C(F)(F)F)C(C)(C)C(F)(F)F [Example 66, Methyl ((5S,8S,9S,14S)-11-(4-(1-(difluoromethyl)-1H-pyrazol-4-yl)-2,6-difluorobenzyl)-16,16,16-trifluoro-9-hydroxy-15,15-dimethyl-3,6,13-trioxo-8-(4-((6-(7-(pyridin-2-yl)-3,7-diazabicyclo[3.3.1]nonan-3-yl)pyridin-3-yl)ethynyl)benzyl)-5-(1,1,1-trifluoro-2-methylpropan-2-yl)-2-oxa-4,7,11,12-tetraazahexadecan-14-yl)carbamate]	14.5 nM	
COC(=O)N[C@H](C(=O)N[C@@H](Cc1ccc(C#Cc2ccc(N3C[C@H]4CN(C)C[C@H]4C3)nc2)cc1)[C@@H](O)CN(Cc1c(F)cc(-c2ccn(C(F)F)n2)cc1F)NC(=O)[C@@H](NC(=O)OC)C(C)(C)C(F)(F)F)C(C)(C)C(F)(F)F [Example 164, Methyl ((5S,8S,9S,14S)-11-(4-(1-(difluoromethyl)-1H-pyrazol-3-yl)-2,6-difluorobenzyl)-16,16,16-trifluoro-9-hydroxy-15,15-dimethyl-8-(4-((6-((3 aR,6aS)-5-methylhexahydropyrrolo[3,4-c]pyrrol-2(1H)-yl)pyridin-3-yl)ethynyl)benzyl)-3,6,13-trioxo-5-(1,1,1-trifluoro-2-methylpropan-2-yl)-2-oxa-4,7,11,12-tetraazahexadecan-14-yl)carbamate]	7.89 nM	
COC(=O)N[C@H](C(=O)N[C@@H](Cc1ccc(C#Cc2ccc(N3CC4CCC(C3)N4[C@@H]3CCOC3)nc2)cc1)[C@@H](O)CN(Cc1c(F)cc(-c2ccn(C(F)F)n2)cc1F)NC(=O)[C@@H](NC(=O)OC)C(C)(C)C(F)(F)F)C(C)(C)C(F)(F)F [Example 143, Methyl ((5S,8S,9S,14S)-11-(4-(1-(difluoromethyl)-1H-pyrazol-3-yl)-2,6-difluorobenzyl)-16,16,16-trifluoro-9-hydroxy-15,15-dimethyl-3,6,13-trioxo-8-(4-((6-(8-((R)-tetrahydrofuran-3-yl)-3,8-diazabicyclo[3.2.1]octan-3-yl)pyridin-3-yl)ethynyl)benzyl)-5-(1,1,1-trifluoro-2-methylpropan-2-yl)-2-oxa-4,7,11,12-tetraazahexadecan-14-yl)carbamate]	7.79 nM	
COC(=O)N[C@H](C(=O)NN(Cc1c(F)cc(-c2ccn(C3CC3)n2)cc1F)C[C@H](O)[C@H](Cc1ccc(C#Cc2ccc(N3CCN(C4COC4)CC3)nc2)cc1)NC(=O)[C@@H](NC(=O)OC)C(C)(C)C(F)(F)F)C(C)(C)C [Example 91, Methyl ((5S,8S,9S,14S)-11-(4-(1-cyclopropyl-1H-pyrazol-3-yl)-2,6-difluorobenzyl)-9-hydroxy-15,15-dimethyl-8-(4-((6-(4-(oxetan-3-yl)piperazin-1-yl)pyridin-3-yl)ethynyl)benzyl)-3,6,13-trioxo-5-(1,1,1-trifluoro-2-methylpropan-2-yl)-2-oxa-4,7,11,12-tetraazahexadecan-14-yl)carbamate]	3.69 nM	
COC(=O)N[C@H](C(=O)NN(Cc1c(F)cc(-c2cn(C(F)F)cn2)cc1F)C[C@H](O)[C@H](Cc1ccc(C#Cc2cnc(N3CC4CCC(C3)N4C3COC3)nc2)cc1)NC(=O)[C@@H](NC(=O)OC)C(C)(C)C(F)(F)F)C(C)(C)C [Example 2, Methyl ((5S,8S,9S,14S)-11-(4-(1-(difluoromethyl)-1H-imidazol-4-yl)-2,6-difluorobenzyl)-9-hydroxy-15,15-dimethyl-8-(4-((2-(8-(oxetan-3-yl)-3,8-diazabicyclo[3.2.1]octan-3-yl)pyrimidin-5-yl)ethynyl)benzyl)-3,6,13-trioxo-5-(1,1,1-trifluoro-2-methylpropan-2-yl)-2-oxa-4,7,11,12-tetraazahexadecan-14-yl)carbamate]	2.64 nM	
COC(=O)N[C@H](C(=O)N[C@H](C(=O)N[C@@H](Cc1ccc(C#Cc2cnc(N3CC4CC(C3)N4C3COC3)nc2)cc1)[C@@H](O)CN(Cc1c(F)cc(-c2ccn(CC(F)F)n2)cc1F)NC(=O)[C@@H](NC(=O)OC)C(C)(C)C)C(C)(C)C)C(C)(C)C [Example 223, Methyl ((5S,8S,11S,12S,17S)-5,8-di-tert-butyl-14-(4-(1-(2,2-difluoroethyl)-1H-pyrazol-3-yl)-2,6-difluorobenzyl)-12-hydroxy-18,18-dimethyl-11-(4-((2-(6-(oxetan-3-yl)-3,6-diazabicyclo[3.1.1]heptan-3-yl)pyrimidin-5-yl)ethynyl)benzyl)-3,6,9,16-tetraoxo-2-oxa-4,7,10,14,15-pentaazanonadecane-17-yl)carbamate]		EC50 (Human immunodeficiency virus 1, MT4, 120 h): 12.9 nM
